Measured values from publication PMC10895676, “Antiviral Activity of Lipophilic Nucleoside Tetraphosphate Compounds” (Journal of Medicinal Chemistry, 2024).
Where “and” joins values, the source holds several entries; their conditions need not be identical. Equal entries are not always repeated. Where two headings read alike, the source gives them in different places.

Legend:
[1] = cited from earlier work
[2] = system: HIV-2 (ROD); assay: Anti-HIV replication assay, HIV-2 (ROD) in thymidine kinase-deficient CEM/TK– cells; format: cell-based; conditions: for selectivity index (SI): CC50/EC50, HIV-2 (ROD) in CEM/TK– cells; for EC50: Human immunodeficiency virus 2, CEM/TK– cells, mean ± SD, n = 2–3, read-out: CEM/TK– HIV-2 (ROD) EC50
Experimental: (§1) Inhibition of HIV-1(HE)- and HIV-2(ROD)-induced cytopathogenicity in wild-type CEM/0 CEM CD4^+ T-cells and thymidine kinase-deficient CEM/TK^– cell cultures was measured in microtiter 96-well plates containing ∼3 × 10^5 CEM cells/mL infected with 100 CCID50 of HIV per milliliter and containing appropriate dilutions of the test compounds. After 4–5 days of incubation at 37 °C in a CO2-controlled humidified atmosphere, virus-induced cellular effects and syncytia cell formation were examined microscopically.

[3] = system: HIV-1 (HE); assay: Anti-HIV replication assay, HIV-1 (HE) in wild-type CEM/0 cells; format: cell-based; conditions: for EC50: Human immunodeficiency virus 1, CCRF-CEM, wild-type CEM/0 cells, mean ± SD, n = 2–3, read-out: HIV-1 (HE) EC50
Experimental: as §1, with “microscopically. The EC50 (50% effective concentration) was defined as the compound concentration required to inhibit HIV-induced giant cell formation by 50%.” for “microscopically.”

[4] = system: HIV-2 (ROD); assay: Anti-HIV replication assay, HIV-2 (ROD) in wild-type CEM/0 cells; format: cell-based; conditions: for selectivity index (SI): CC50/EC50, HIV-2 (ROD) in CEM cells; for EC50: Human immunodeficiency virus 2, CCRF-CEM, read-out: HIV-2 (ROD) EC50
Experimental: as §1

[5] = Cytotoxicity, inhibition of CEM/TK– cell proliferation; format: cell-based; conditions: human, CEM/TK– cells (CD4+ T-cells), read-out: toxicity CC50
[6] = Chemical hydrolysis in aqueous buffers (PBS pH 7.3 / 8.0, citrate buffer pH 2.0), RP18-HPLC; format: physicochemical; conditions: phosphate buffered saline; 25 mM PBS, pH 7.3, 37 °C; read-out: PBS pH 7.3 t1/2 (converted)
Experimental: All metabolite mixtures were analyzed and quantified by means of analytical RP18-HPLC (UV detection).
The solution was incubated at 37 °C in a thermomixer. […] for each extraction and stored at −30 °C. When testing, samples were warmed up to room temperature, and 25 or 20 μL of the liquid was taken and injected into the analytical RP-18-HPLC instrument. Further aliquots were taken for monitoring the kinetic hydrolysis.
5.88 g of citric acid and 3.58 g of NaCl were dissolved in 82 mL of hydrochloric acid (0.1 mol/L). Then, sodium hydroxide was added to adjust the pH to 2.0.

[7] = Cytotoxicity, inhibition of CEM cell proliferation; format: cell-based; conditions: human, CEM cells (CD4+ T-cells), read-out: toxicity CC50
[8] = Hydrolysis in CEM/0 cell extracts; format: in vitro ADME; conditions: human, 37 °C, read-out: CEM/0 cell extracts t1/2 (converted)
Experimental: Next, TetraPPPPro-nucleotides 4–9 were incubated in human CD4^+ T-lymphocyte CEM/0 cell extracts to study their stability and identify the hydrolysis products.
CEM cells were grown in RPMI-1640-based cell culture medium to a final density of ∼3 × 10^6 cells/mL. Cells were centrifuged for 10 min at 1250 rpm at 4 °C and washed twice with cold PBS, and the pellet was resuspended at 10^8 cells/mL and sonicated (Hielscher Ultrasound Techn., 100% amplitude, 3·times for 10 s) to destroy cell integrity. Next, the resulting cell suspension was centrifuged at 10,000 rpm to remove cell debris. Finally, the supernatant was divided into aliquots and frozen at −80 °C.
6.0 mM hydrolysis solutions of compounds 4–9 were prepared from 21 μL of 50 mM DMSO stock solutions and 154 μL of DMSO. Two different samples, including 10 μL of water and 10 μL of 6.0 mM hydrolysis solution, were prepared in 2 mL Eppendorf vials. Next, 50 μL of human CEM cell extracts or 50 μL of human citrate plasma were added to the mixture, the reaction was started, and the mixture was incubated at 37 °C for different time periods. The reactions were stopped by the addition of 150 μL of MeOH. The resulting suspension was kept on ice for 5 min, followed by defrosting and centrifugation at 14,000 rpm (Heraeus, Biofuge Pico) for 22 min. The supernatants (80 or 60 μL) were directly injected into HPLC. The calculation of t1/2 was performed analogously to that for the chemical hydrolysis studies.

[9] = system: pig liver esterase (PLE); assay: Enzymatic hydrolysis with pig liver esterase (PLE); format: in vitro ADME; conditions: pig liver esterase in phosphate buffer, PLE in phosphate buffer pH 7.3, 37 °C, read-out: PLE t1/2 (converted)
Experimental: To confirm the enzymatic hydrolysis process, TetraPPPPro-nucleotides 4–9 bearing different kinds of lipophilic groups attached to the δ-phosph(on)ate group were incubated with PLE in phosphate buffer.
Then, 833 μL of 50 mM phosphate buffer (pH 7.3) and 125 μL of DMSO were added to the 6.0 mM hydrolysis solutions. The reaction was started by addition of 62.5 μL of PLE in phosphate buffer (100 units/mL), and the mixture was incubated at 800 rpm at 37 °C in a thermomixer. (1). At different times, aliquots (75 μL) were taken and stopped by the addition of […] of MeOH. The mixture was stored in liquid nitrogen. When testing, samples were warmed up to room temperature, and 60 μL of the liquid was directly injected into HPLC analysis. (2). 40 μL for each extraction was stored in liquid nitrogen. When testing, samples were warmed up to room temperature, and 30 μL of the liquid was taken and injected into the analytical RP-18-HPLC instrument. The calculation of t1/2 was performed analogously to that for the chemical hydrolysis studies.

[10] = wild-type CEM/0 cells, mean ± SD, n = 2–3

| Molecule | PBS pH 7.3 t1/2 ([1]; PBS) [h] | selectivity index (SI) [2] | improvement of antiviral activity as compared to the parent d4T ([2]; HIV-2, CEM/TK– cells) [fold] | EC50 [2] [nM] | EC50 [3] [nM] | selectivity index (SI) [4] | EC50 [4, 10] [nM] | CC50 [5] [nM] | half-life at 1.9 mM [6] [h] | CC50 [7] [nM] | increase in antiviral potency as compared to d4T ([3]; HIV-1, CEM/0 cells) [fold] | increase in antiviral potency as compared to d4T ([4]; HIV-2, CEM/0 cells) [fold] | half-life at 0.86 mM [8] [h] | half-life at 0.45 mM [9] [h] | EC50 [4] [nM] | PBS pH 7.3 t1/2 ([1]; buffer) [h] |
| --- | --- | --- | --- | --- | --- | --- | --- | --- | --- | --- | --- | --- | --- | --- | --- | --- |
| CCCCCCCCCCCCCCCCCCOP(=O)(OCc1ccc(OC(=O)CCCC)cc1)OP(=O)(O)OP(=O)(O)OC[C@@H]1C=C[C@H](n2cc(C)c(=O)[nH]c2=O)O1 (stereo partly drawn) [2a, γ-(AB-C4; C18)-d4TTP] | 237 | – | – | – | – | – | – | – | – | – | – | – | – | – | – | – |
| CCCCCCCCCCCCOP(=O)(OCCCCCCCCCCCC)OP(=O)(O)OP(=O)(O)OP(=O)(O)OC[C@@H]1C=C[C@H](n2cc(C)c(=O)[nH]c2=O)O1 [4b, δ-(Alkyl-C12; alkyl-C12)-d4T4P] | – | 2927 | > 1700 | 29 ± 37 | 170 ± 100 | 405 | 110 ± 50 | 84900 | 215 | 44600 | – | – | – | – | – | – |
| CCCCCCCCCCCCCCCCCCOP(=O)(OCCCCCCCCCCCCCCCCCC)OP(=O)(O)OP(=O)(O)OP(=O)(O)OC[C@@H]1C=C[C@H](n2cc(C)c(=O)[nH]c2=O)O1 [4c, δ-(Alkyl-C18; alkyl-C18)-d4T4P] | – | 13 | – | 6180 ± 1000 | 1990 ± 900 | 24 | 2090 ± 580 | 84100 | – | 50000 | – | – | – | – | – | – |
| CCCCCCCCCCCCCCCCCCOP(=O)(OCC(CC)CCCC)OP(=O)(O)OP(=O)(O)OP(=O)(O)OC[C@@H]1C=C[C@H](n2cc(C)c(=O)[nH]c2=O)O1 (stereo partly drawn) [4e, δ-(Alkyl-C8; alkyl-C18)-d4T4P] | – | 114 | – | 430 ± 210 | 440 ± 170 | 139 | 320 ± 90 | 48900 | 325 | 44700 | – | – | – | – | – | – |
| CCCCCCCCCCCCCCCCCCP(=O)(OCC(CC)CCCC)OP(=O)(O)OP(=O)(O)OP(=O)(O)OC[C@@H]1C=C[C@H](n2cc(C)c(=O)[nH]c2=O)O1 (stereo partly drawn) [5b, δ-(Alkyl-C8)-δ-C-(alkyl-C18)-d4T4P] | – | 312 | – | 160 ± 130 | 1440 ± 700 | >77 | 1300 ± 640 | 50000 | > 1000 | > 100000 | – | – | – | – | – | – |
| CCCCCCCCCCCCCCCCCCP(=O)(OCc1ccc(OC(=O)CCCC)cc1)OP(=O)(O)OP(=O)(O)OP(=O)(O)OC[C@@H]1C=C[C@H](n2cc(C)c(=O)[nH]c2=O)O1 (stereo partly drawn) [compound 7, δ-(AB-C4)-δ-C-(alkyl-C18)-d4T4P] | – | 5700 and 5677 | – | 6.5 ± 5.7 | 9.2 ± 8.2 | 4330 | 9.1 ± 7.7 | 36900 | > 600 | 39400 | 36 | 107 | > 8 | 0.5 | – | – |
| CCCCCCCCCCCCCCCCOC(=O)Oc1ccc(COP(=O)(OCc2ccc(OC(=O)CCCC)cc2)OP(=O)(O)OP(=O)(O)OP(=O)(O)OC[C@@H]2C=C[C@H](n3cc(C)c(=O)[nH]c3=O)O2)cc1 (stereo partly drawn) [compound 9, δ-(AB-C4; ACB-C16)-d4T4P] | – | 5 | – | 9710 ± 4780 | 170 ± 50 | 365 | 210 ± 110 | 50000 | 25 | 76800 | – | – | 2.58 | 1.03 | – | – |
| Cc1cn([C@H]2C=C[C@@H](CO)O2)c(=O)[nH]c1=O [d4T, 3′-deoxy-2′,3′-didehydrothymidine, reference compound] | – | – | – | > 50000 | 330 ± 130 | – | – | > 50000 | – | > 50000 | – | – | – | – | 970 ± 500 | – |
| β-(AB-C4)-β-C-(C18)-d4TDP [33b] | – | – | – | – | – | – | – | – | – | – | – | – | – | – | – | > 1000 |
| β-(AB-C4; C18)-d4TDP [33a] | – | – | – | – | – | – | – | – | – | – | – | – | – | – | – | 406 |
| β-(alkyl-C4)-β-C-(alkyl-C18)-d4TDP | – | – | – | – | – | – | – | – | – | – | – | – | – | – | – | > 3000 |
